From patent US20260355199A1, “COMPOSITIONS AND METHODS FOR TREATING OR PREVENTING NONALCOHOLIC STEATOHEPATITIS (NASH), ANOREXIA, DEPRESSION, ENDOMETRIOSIS, AND OTHER DISEASES OR DISORDERS” (priority 2022, published 2026)
Entries after “also recorded” stand apart in the source; their conditions may differ.

Assays:
[1] = system: TET3; experiment: TET3 protein in SH-SY5Y human neuronal cells; type: cell-based
Description: Mouse GT1-7 hypothalamic neuronal cell line (Sigma-Aldrich, SCC116) and human SH-SY5Y neuroblastoma cell line (Sigma Aldrich, 94030304) were purchased and cultured according to the manufacturers' instructions. Purified Ad-TET3 adenovirus (Ad-FLAG.h-TET3, ADV-225322, Vector Biolabs) expressing human TET3 from a CMV promoter and Ad-GFP control adenovirus (1060, Vector Biolabs) were purchased.
For Bobcat339 treatment (FIG. 15A and FIG. 15B), GT1-7 cells grown in 24-well plates at 2×10^5 cells/well were incubated with vehicle or Bobcat339 at a final concentration of 10 μM for 6 h, followed by RNA and protein extractions. For TET3 protein stability assay (FIG. 15B), GT1-7 cells in 24-well plates at 2×10^5 cells/well were incubated with vehicle or Bobcat339 at a final concentration of 10 μM for 3 hours, followed by addition of cycloheximide (CHX, Cell Signaling, 2112) at a final concentration of […] in the presence of 10 μM of Bobcat339. Proteins were harvested at 0, 1, 2, and 3 hours after addition of CHX. For TET3 expression restoration experiments (FIG. 15C and FIG. 15D), GT1-7 or SH-SY5Y cells seeded in 24-well plates at 2×10^5 cells/well were infected with Ad-GFP or Ad-TET3 at 4000 gc/cell. Following 16 h of infection, vehicle or Bobcat339 were added at a final concentration of 10 μM. Protein and RNA were isolated 48 h later and analyzed. […]

[2] = system: TET3 mRNA; experiment: TET3 mRNA in THP-1 cells; type: cell-based, human; details: THP-1, 10 μM, 24 h
Procedure: Bobcat339 Treatment of Cultured Cells Bobcat339 powder (Sigma-Aldrich, SML2611) was freshly dissolved in DMSO at a concentration of 5 mM and filtered through a 0.22 micron. Cells grown at a density of 80-90% were incubated in growth media with vehicle (DMSO) or Bobcat339 at a final concentration of 10 μM for 24 h, followed by RNA and protein extraction.
(§1) Total RNAs were extracted from cells using PureLink RNA Mini Kit. 0.5-1 μg total RNA was reverse transcribed to cDNA in a reaction volume of 20 μL using PrimeScript RT Reagent Kit. Real-time quantitative PCR was performed in a 15 μL reaction volume containing 0.5-1 μL of cDNA using SsoAdvanced Universal SYBR Green Supermix in a Bio-Rad iCycler. Gene expression levels were normalized against RPLP0.

[3] = system: Lin28; experiment: Lin28 expression in mouse peritoneal macrophages; type: cell-based; details: 10 μM, 48 h
Procedure: For cultured mouse peritoneal macrophages, cells were primed with 30 ng/ml of TGF-β1 (R&D Systems, 7666-MB0-005) for 48 h (to increase TET3 expression) before Bobcat339 treatment. Bobcat339 (or DMSO) was added at a final concentration of 10 μM, followed by RNA and protein extraction at time points indicated in the figure legends.
as §1

[4] = system: murine model of endometriosis; experiment: Surgically induced murine model of endometriosis; type: in vivo, mouse
Procedure: Female mice were randomly divided into three groups (sham, endometriosis treated with vehicle, and endometriosis treated with Bobcat) and subjected to surgery (week 1) to induce endometriosis or sham (FIG. 22A). The first once-a-week intraperitoneal (i.p.) injection of Bobcat339 (or vehicle) at a dose of 2.5 mg/kg was performed on week 3, followed by euthanasia and blood and tissue collection at week 9.
Given that Bobcat339 degrades TET3 inducing apoptosis (FIG. 26) and that myeloid-specific Tet3 ablation attenuates endometriosis (FIG. 28A through FIG. 28C), studies were performed to test whether Bobcat339 would elicit therapeutic effects on endometriosis. Thus, female mice were randomly divided into three groups (sham, endometriosis treated with vehicle, and endometriosis treated with Bobcat339) and subjected to surgery (week 0) to induce endometriosis or sham (FIG. 28D). The first once-a-week intraperitoneal (i.p.) injection of Bobcat339 (or vehicle) at a dose of 2.5 mg/kg body weight was performed on week 2, followed by euthanasia and blood and tissue collection on week 8. The dose of 2.5 mg/kg was chosen based on the previous studies showing no discernible liver toxicity in mice (Lv et al., 2023, Proc Natl Acad Sci USA, In press).
As Bobcat339 destabilized TET3, thus promoting macrophage apoptosis, additional studies tested whether Bobcat339 inhibits endometriosis (FIG. 25). Female mice were randomly divided into three groups (sham, endometriosis treated with vehicle, and endometriosis treated with Bobcat339) and subjected to surgery (week 0) to induce endometriosis or sham (FIG. 26). The first once-a-week intraperitoneal (i.p.) injection of Bobcat339 (or vehicle) at a dose of 3 mg/kg body weight was performed on week 2, followed by euthanasia and sample collection on week 8.
Bobcat339 powder was freshly dissolved in DMSO at a concentration of 50 mg/mL and filtered through a 0.22 micron filter. It was further diluted with 1×PBS to a final concentration of 0.5 mg/mL before injections. Mice were injected intraperitoneally with Bobcat339 at 2.5 mg/kg body weight.
Briefly, uterus horns were removed from wild-type female donor mice, opened longitudinally and cut into fragments of 3 mm. Two uterine segments were sutured to each right and left parietal peritoneum of recipient mice (6-7 weeks old) with absorbable suture. Sham surgeries were performed for sham group, using the same surgical procedure without the introduction of extraneous uterine tissue. The experimental model was allowed to develop for more than 4 weeks. Development of the model was confirmed by opening the abdominal cavity and measuring the size of endometriotic lesions both macroscopically and histologically.

Nc1nc(=O)n(-c2cccc(-c3ccccc3)c2)cc1Cl [Bobcat339, 4-Amino-1-[1,1′-biphenyl]-3-yl-5-chloro-2(1H)-pyrimidinone]
TET3 protein level / degradation [1]: induced protein degradation of TET3
TET3 mRNA [2]: no significant difference in expression between the groups
Lin28 expression [3]: decreased
TET3-expressing (CD163 double positive) macrophages in lesions ([4]; 2.5 mg/kg i.p. once a week): depletion of TET3/CD163-double positive cells; also recorded: depletion of TET3-expressing macrophages
body weight ([4]; 2.5 mg/kg i.p. once a week): no statistically significant differences were observed in body weight; also recorded: nor was there a significant difference in body weight
endometriosis lesion volume ([4]; 2.5 mg/kg i.p. once a week): significantly reduced the lesion volume; also recorded: a significant decrease in lesion volume; also recorded: a significantly decrease in lesion volume
food intake / appetite in endometriosis mice ([4]; 2.5 mg/kg i.p. once a week): the decrease was not observed; also recorded: improved appetite
IL-1b and IL-6 expression in CD163+ macrophage-enriched areas ([4]; 3 mg/kg i.p. once a week): a dramatic reduction in the expression of IL-1b and IL-6
body weight ([4]; 3 mg/kg i.p. once a week): nor was there a significant difference in body weight
endometriosis lesion volume ([4]; 3 mg/kg i.p. once a week): significantly reduced the lesion volume
number of TET3-overexpressing CD163+ macrophages ([4]; 3 mg/kg i.p. once a week): a marked decrease in the number of TET3-overexpressing CD163^+ macrophages
